From patent US8420692B1, “Heterocyclic and carbonate derivatives of NDGA and their use as new anti-HIV and anti-cancer agents” (The Johns Hopkins University, priority 2006, dated 2013)
pIC50: −log10 of the molar value. Like-named read-outs stand apart in the source and are kept apart here.

Experiments:
[1] = test system: HIV Tat-regulated transactivation; test: cells; format: cell-based; settings: for Inhibition (%) of HIV Tat-regulated Transactivation in COS Cells: average of three experiments; for pIC50: read-out: IC50, HIV Tat-regulated transactivation
Experimental: The COS cells were co-transfected with a Tat-producing plasmid and a plasmid containing the HIV LTR linked to the SeAP reporter gene. Transfected cells were treated with various concentrations of 5b P4N. After 48 h, aliquots of media were removed and analysis of SeAP activity was performed. The percent inhibition of SeAP activity by 5b P4N ? was calculated in comparison with the percent of growth inhibition of untransfected COS cells by P4N ?
The medium used for dilution of compounds and maintenance of cultures during the assay was the same as described above. Cultures were maintained in disposable tissue culture labware at 37° C. in a humidified atmosphere of CO2 (5.0%) in air. Compounds were dissolved as stock solutions in water or dimethyl sulfoxide (DMSO) at the concentration of 10 mM. The stock solutions were diluted with H2O (5a-d) or DMSO (6a,b and 7) and dilute by medium to the desired concentration by a 30-s vortex just before addition into the cell culture. Triplicate cell samples were seeded at density of ˜1.5×10^4 cell per well in Libro 24-well flat-bottom culture dishes (17-mm diameter), which were incubated for 24 h until they reached 50% confluence. The cells were cotransfected by the calcium phosphate procedure with DNA from plasmids pBC12/CMV/t2 (coding for Tat function, 0.20 μg/well) and pBC12/HIV/SeAP (0.40 μg/well). Cells and DNAs were kept in contact for 6.0 h; then the medium was aspirated and replaced by 500 μL of medium containing the test compound. The compound-treated cells were then incubated for additional 48 h. At the end of incubation, an aliquot of cell culture medium was removed and SeAP activities were analyzed by spectrametric method.^20 The sample of culture medium were heated at 65° C. for 5.0 min to inactivate endogenous phosphatases selectively (SeAP is thermal stable). The buffer solution of 2×SeAP (100 μL, 1.0 M diethanolamine, pH 9.8; 0.50 mM MgCl2; 10 mM L-homoarginine) was added to the culture medium sample (100 μL) in a 96-well flat-bottom culture dish (Corning). Then, the substrate solution ([…], 120 mM, p-nitrophenyl phosphate dissolved in 1×SeAP buffer) was dispensed into each well containing the reaction mixture. The absorbance at wavelength 405 nm specific for the hydrolysis product was read at 2.5 min intervals at 37° C. over the course of 60 min on an EL340i microplate reader (Bio-tek Instruments) with 5 s automatic shaking before each reading.
Two plasmid constructs^19 were used to test the effect of synthesized NDGA derivatives on Tat-regulated HIV transactivation as described previously.^12,13,19 The plasmid constructs included a cytomegalovirus (CMV) promoter driven tat gene and SP1 regulated HIV LTR promoter driven reporter gene (i.e., SeAP). A standard SeAP assay in the absence of drug was initially run to find out efficiency of transfection.

[2] = Stability in aqueous solution (time dependent UV spectra); format: physicochemical
Experimental: FIG. 1: Stability of Two NDGA Derivatives G4N and P4N(HCl salts) in Aqueous Solution. Time Dependent Changes in UV spectra showing (a) G4N is unstable and (b) meso-2,3-dimethyl-1,4-bis(3,4-[2-piperidino)ethoxyphenyl])butane (P4N) (compound 5b in Scheme 1) (day 1, 2, 8, 13, 28) is stable in Milli-Q water after 28 days at 20° C.
The new NDGA derivatives (Scheme 1) were found stable in aqueous solution; >99% of these compounds remained intact after 28 days (see FIG. 1(b)). In a sharp contrast, >96% G4N (4) decomposed in aqueous solution within 24 h (see FIG. 1(a)).

[3] = test system: HIV Tat-regulated transactivation; settings: values from references 9 and 12; read-out: IC50, Tat-regulated SeAP production (reference compounds); cited from earlier work
[4] = COS cells, SeAP, mean of triplicate determinations
[5] = Human immunodeficiency virus 1, COS, read-out: Inhibition (%) of HIV Tat-regulated Transactivation in COS Cells

C[C@H](Cc1ccc(OCCN2CCCC2)c(OCCN2CCCC2)c1)[C@@H](C)Cc1ccc(OCCN2CCCC2)c(OCCN2CCCC2)c1.Cl.Cl.Cl.Cl [Compound 5a, meso-2,3-Dimethyl-1,4-bis(3,4-[2-(pyrrolidino)ethoxyphenyl])butane Tetrakishydrochloride Salt]
Inhibition (%) of HIV Tat-regulated Transactivation in COS Cells ([1]; 0.10 μM): 18.1%
Inhibition (%) of HIV Tat-regulated Transactivation in COS Cells ([1]; 0.25 μM): 15.4%
Inhibition (%) of HIV Tat-regulated Transactivation in COS Cells ([1]; 0.50 μM): 27.2%
Inhibition (%) of HIV Tat-regulated Transactivation in COS Cells ([1]; 1.0 μM): 19.6%
Inhibition (%) of HIV Tat-regulated Transactivation in COS Cells ([1]; 2.5 μM): 31.0%
Inhibition (%) of HIV Tat-regulated Transactivation in COS Cells ([1]; 5.0 μM): 14.1%
Inhibition (%) of HIV Tat-regulated Transactivation in COS Cells ([1]; 10 μM): 26.3%
Inhibition (%) of HIV Tat-regulated Transactivation in COS Cells ([1]; 20 μM): 59.1%
Inhibition (%) of HIV Tat-regulated Transactivation in COS Cells ([1]; 40 μM): 94.8%
Inhibition (%) of HIV Tat-regulated Transactivation in COS Cells ([1]; 80 μM): 97.1%
Inhibition (%) of HIV Tat-regulated Transactivation in COS Cells ([1]; 100 μM): 100%
pIC50 [1, 4]: 4.76

C[C@H](Cc1ccc(OCCN2CCOCC2)c(OCCN2CCOCC2)c1)[C@@H](C)Cc1ccc(OCCN2CCOCC2)c(OCCN2CCOCC2)c1.Cl.Cl.Cl.Cl [Compound 5c, meso-2,3-Dimethyl-1,4-bis(3,4-[2-(morpholino)ethoxyphenyl])butane Tetrakishydrochloride Salt]
Inhibition (%) of HIV Tat-regulated Transactivation in COS Cells ([1]; 0.10 μM): 5.0%
Inhibition (%) of HIV Tat-regulated Transactivation in COS Cells ([1]; 0.25 μM): 16.5%
Inhibition (%) of HIV Tat-regulated Transactivation in COS Cells ([1]; 0.50 μM): 9.9%
Inhibition (%) of HIV Tat-regulated Transactivation in COS Cells ([1]; 1.0 μM): 8.1%
Inhibition (%) of HIV Tat-regulated Transactivation in COS Cells ([1]; 2.5 μM): 4.6%
Inhibition (%) of HIV Tat-regulated Transactivation in COS Cells ([1]; 5.0 μM): 13.3%
Inhibition (%) of HIV Tat-regulated Transactivation in COS Cells ([1]; 10 μM): 25.4%
Inhibition (%) of HIV Tat-regulated Transactivation in COS Cells ([1]; 20 μM): 58.9%
Inhibition (%) of HIV Tat-regulated Transactivation in COS Cells ([1]; 40 μM): 86.0%
Inhibition (%) of HIV Tat-regulated Transactivation in COS Cells ([1]; 80 μM): 96.8%
Inhibition (%) of HIV Tat-regulated Transactivation in COS Cells ([1]; 100 μM): 100%
pIC50 [1, 4]: 4.76

C[C@H](Cc1ccc(OCCCN2CCOCC2)c(OCCCN2CCOCC2)c1)[C@@H](C)Cc1ccc(OCCCN2CCOCC2)c(OCCCN2CCOCC2)c1.Cl.Cl.Cl.Cl [Compound 5d, meso-2,3-Dimethyl-1,4-bis(3,4-[3-(morpholino)propoxyphenyl])butane Tetrakishydrochloride Salt]
Inhibition (%) of HIV Tat-regulated Transactivation in COS Cells ([1]; 0.10 μM): 15.0%
Inhibition (%) of HIV Tat-regulated Transactivation in COS Cells ([1]; 0.25 μM): 15.9%
Inhibition (%) of HIV Tat-regulated Transactivation in COS Cells ([1]; 0.50 μM): 10.6%
Inhibition (%) of HIV Tat-regulated Transactivation in COS Cells ([1]; 1.0 μM): 9.5%
Inhibition (%) of HIV Tat-regulated Transactivation in COS Cells ([1]; 2.5 μM): 52.7%
Inhibition (%) of HIV Tat-regulated Transactivation in COS Cells ([1]; 5.0 μM): 89.5%
Inhibition (%) of HIV Tat-regulated Transactivation in COS Cells ([1]; 10 μM): 96.0%
Inhibition (%) of HIV Tat-regulated Transactivation in COS Cells ([1]; 20 μM): 99.9%
Inhibition (%) of HIV Tat-regulated Transactivation in COS Cells ([1]; 40 μM): 99.8%
Inhibition (%) of HIV Tat-regulated Transactivation in COS Cells ([1]; 80 μM): 100%
Inhibition (%) of HIV Tat-regulated Transactivation in COS Cells ([1]; 100 μM): 89.5%
pIC50 [1, 4]: 5.62

C[C@H](Cc1ccc(OC(=O)N2CCCCC2)c(OC(=O)N2CCCCC2)c1)[C@@H](C)Cc1ccc(OC(=O)N2CCCCC2)c(OC(=O)N2CCCCC2)c1 [Compound 6a, meso-2,3-Dimethyl-1,4-bis[3,4-(phenylpiperidine-1-carboxylate)]butane]
Inhibition (%) of HIV Tat-regulated Transactivation in COS Cells ([1]; 0.10 μM): 0%
Inhibition (%) of HIV Tat-regulated Transactivation in COS Cells ([1]; 0.25 μM): 3.5%
Inhibition (%) of HIV Tat-regulated Transactivation in COS Cells ([1]; 0.50 μM): 5.8%
Inhibition (%) of HIV Tat-regulated Transactivation in COS Cells ([1]; 1.0 μM): 11.7%
Inhibition (%) of HIV Tat-regulated Transactivation in COS Cells ([1]; 2.5 μM): 46.2%
Inhibition (%) of HIV Tat-regulated Transactivation in COS Cells ([1]; 5.0 μM): 78.6%
Inhibition (%) of HIV Tat-regulated Transactivation in COS Cells ([1]; 10 μM): 84.0%
Inhibition (%) of HIV Tat-regulated Transactivation in COS Cells ([1]; 20 μM): 86.1%
Inhibition (%) of HIV Tat-regulated Transactivation in COS Cells ([1]; 40 μM): 83.8%
Inhibition (%) of HIV Tat-regulated Transactivation in COS Cells ([1]; 80 μM): 90.1%
Inhibition (%) of HIV Tat-regulated Transactivation in COS Cells ([1]; 100 μM): 89.8%
pIC50 [1, 4]: 5.55

COC(=O)Oc1ccc(C[C@@H](C)[C@@H](C)Cc2ccc(OC(=O)OC)c(OC(=O)OC)c2)cc1OC(=O)OC [Compound 6b, meso-2,3-Dimethyl-1,4-bis[3,4-(methylphenyl carbonate)]butane]
Inhibition (%) of HIV Tat-regulated Transactivation in COS Cells ([1]; 0.10 μM): 9.8%
Inhibition (%) of HIV Tat-regulated Transactivation in COS Cells ([1]; 0.25 μM): 12.3%
Inhibition (%) of HIV Tat-regulated Transactivation in COS Cells ([1]; 0.50 μM): 16.0%
Inhibition (%) of HIV Tat-regulated Transactivation in COS Cells ([1]; 1.0 μM): 13.1%
Inhibition (%) of HIV Tat-regulated Transactivation in COS Cells ([1]; 2.5 μM): 15.1%
Inhibition (%) of HIV Tat-regulated Transactivation in COS Cells ([1]; 5.0 μM): 38,0%
Inhibition (%) of HIV Tat-regulated Transactivation in COS Cells ([1]; 10 μM): 51,6%
Inhibition (%) of HIV Tat-regulated Transactivation in COS Cells ([1]; 20 μM): 58.4%
Inhibition (%) of HIV Tat-regulated Transactivation in COS Cells ([1]; 40 μM): 70.8%
Inhibition (%) of HIV Tat-regulated Transactivation in COS Cells ([1]; 80 μM): 93.4%
Inhibition (%) of HIV Tat-regulated Transactivation in COS Cells ([1]; 100 μM): 88.9%
pIC50 [1, 4]: 5.03

C[C@H](Cc1ccc2oc(=O)oc2c1)[C@@H](C)Cc1ccc2oc(=O)oc2c1 [Compound 7, meso-2,3-Dimethyl-1,4-bis(benzo[d][1,3]-dioxol-2-one)butane]
pIC50 ([1]; Human immunodeficiency virus 1, COS): 5.07
inhibition at 0.1 µM [1, 5]: 7.5%
inhibition at 0.25 µM [1, 5]: 18.1%
inhibition at 0.5 µM [1, 5]: 4.2%
inhibition at 1 µM [1, 5]: 5.9%
inhibition at 2.5 µM [1, 5]: 23.7%
inhibition at 5 µM [1, 5]: 47.1%
inhibition at 10 µM [1, 5]: 51.2%
inhibition at 20 µM [1, 5]: 68.8%
inhibition at 40 µM [1, 5]: 85.7%
inhibition at 80 µM [1, 5]: 96.3%
inhibition at 100 µM [1, 5]: 91.6%
melting point: 172.6 to 173.4 °C

C[C@H](Cc1ccc(OC(=O)CN(C)C)c(OC(=O)CN(C)C)c1)[C@@H](C)Cc1ccc(OC(=O)CN(C)C)c(OC(=O)CN(C)C)c1 [Compound G4N, (tetra-O-dimethylglycyl)nordihydroguaiaretic acid]
Stability in Milli-Q water (UV spectra) ([2]; HCl salts, 28 days at 20° C., FIG. 1): unstable
Compound decomposed in aqueous solution ([2]; within 24 h): > 96%

COc1ccc(C[C@@H](C)[C@@H](C)Cc2ccc(OC)c(OC)c2)cc1OC [Compound M4N, (tetra-O-methyl)nordihydroguaiaretic acid]
pIC50 [3]: 4.95

COc1cc(C[C@H](C)[C@H](C)Cc2ccc(O)c(O)c2)ccc1O [Mal.4]
pIC50 [3]: 4.60

C[C@H](Cc1ccc(O)c(O)c1)[C@@H](C)Cc1ccc(O)c(O)c1 [NDGA, Nordihydroguaiaretic acid]
pIC50 [3]: 4.70
